Test results published in ChEMBL document CHEMBL1201862, “PubChem BioAssay data set” (2004).
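Cultured in 96-well plates, cells were exposed to test compound for 48 hours across five concentrations. GI50 is the concentration that inhibits growth by half.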 Activity calls are given as the source filed them. Cut-off read from the data, not from the text of the source: active = GI50 up to about 1.1 µM and inactive = higher.

How the values were obtained:
Experiment in all cases: NCI-60 cell line screen, 48 h
BT-549 = tested on: BT-549
CAKI-1 = tested on: CAKI-1
HCT-116 = tested on: HCT-116
HL-60 = tested on: HL-60
HOP-92 = tested on: HOP-92
Hs-578T = tested on: Hs-578T
IGROV-1 = tested on: IGROV-1
KM12 = tested on: KM12
NCI-H460 = tested on: NCI-H460
NCI/ADR-RES = tested on: NCI/ADR-RES
RPMI-8226 = tested on: RPMI-8226
SF-539 = tested on: SF-539
SK-MEL-5 = tested on: SK-MEL-5
SK-OV-3 = tested on: SK-OV-3
SN12C = tested on: SN12C
T47D = tested on: T47D
U-251 = tested on: U-251
ACHN = tested on: ACHN
RXF 393 = tested on: RXF 393

Row | SMILES | GI50 (BT-549) | GI50 (CAKI-1) | GI50 (HCT-116) | GI50 (HL-60) | GI50 (HOP-92) | GI50 (Hs-578T) | GI50 (IGROV-1) | GI50 (KM12) | GI50 (NCI-H460) | GI50 (NCI/ADR-RES) | GI50 (RPMI-8226) | GI50 (SF-539) | GI50 (SK-MEL-5) | GI50 (SK-OV-3) | GI50 (SN12C) | GI50 (T47D) | GI50 (U-251) | GI50 (ACHN) | GI50 (RXF 393)
1 | Cc1sc2nc3n(sc4nc5sc(C)c(C)c5c(=O)n43)c(=O)c2c1C | 70.5 µM (inactive) | 66.1 µM (inactive) | > 100 µM (inactive) | 40.3 µM (inactive) | > 100 µM (inactive) | > 100 µM (inactive) | > 100 µM (inactive) | > 100 µM (inactive) | > 100 µM (inactive) | > 100 µM (inactive) | > 100 µM (inactive) | > 100 µM (inactive) | > 100 µM (inactive) | > 100 µM (inactive) | > 100 µM (inactive) | 0.935 µM (active) | > 100 µM (inactive) | – | –
2 | CCOC(=O)c1nc2ccccc2nc1Oc1ccc(C(=O)OC)cc1 | > 100 µM (inactive) | > 100 µM (inactive) | > 100 µM (inactive) | – | > 100 µM (inactive) | > 100 µM (inactive) | > 100 µM (inactive) | > 100 µM (inactive) | > 100 µM (inactive) | > 100 µM (inactive) | > 100 µM (inactive) | > 100 µM (inactive) | > 100 µM (inactive) | > 100 µM (inactive) | > 100 µM (inactive) | > 100 µM (inactive) | > 100 µM (inactive) | > 100 µM (inactive) | > 100 µM (inactive)
3 | CN1CC[C@]23c4c5ccc(O)c4O[C@H]2C(O)CC[C@@]3(O)[C@H]1C5 (stereo not given in full) | > 100 µM (inactive) | > 100 µM (inactive) | > 100 µM (inactive) | > 100 µM (inactive) | > 100 µM (inactive) | > 100 µM (inactive) | > 100 µM (inactive) | > 100 µM (inactive) | – | > 100 µM (inactive) | > 100 µM (inactive) | > 100 µM (inactive) | > 100 µM (inactive) | > 100 µM (inactive) | > 100 µM (inactive) | > 100 µM (inactive) | > 100 µM (inactive) | > 100 µM (inactive) | –
4 | O=C1c2cccnc2C(=O)c2c1nc1ccccc1c2-c1cncc(-c2c3c(nc4ccccc24)C(=O)c2cccnc2C3=O)c1 | 0.502 µM (active) | 0.332 µM (active) | 0.139 µM (active) | 0.0687 µM (active) | – | 0.39 µM (active) | < 0.0144 µM (active) | 0.212 µM (active) | 0.19 µM (active) | 0.253 µM (active) | 0.141 µM (active) | 2.19 µM (inactive) | 0.0568 µM (active) | 0.363 µM (active) | 0.126 µM (active) | 0.439 µM (active) | 0.146 µM (active) | 0.124 µM (active) | 0.316 µM (active)
5 | Cc1ccc(S(=O)(=O)NC(=O)NC(C(=O)O)C(C)C)cc1 (stereo not given) | > 100 µM (inactive) | – | > 100 µM (inactive) | > 100 µM (inactive) | > 100 µM (inactive) | > 100 µM (inactive) | > 100 µM (inactive) | > 100 µM (inactive) | > 100 µM (inactive) | > 100 µM (inactive) | > 100 µM (inactive) | > 100 µM (inactive) | > 100 µM (inactive) | > 100 µM (inactive) | > 100 µM (inactive) | > 100 µM (inactive) | > 100 µM (inactive) | > 100 µM (inactive) | > 100 µM (inactive)
6 | COc1ccc(N2C(=O)CC(c3c[nH]c4ccccc34)C2=O)cc1 (stereo not given) | > 100 µM (inactive) | > 100 µM (inactive) | > 100 µM (inactive) | > 100 µM (inactive) | > 100 µM (inactive) | 9.08 µM (inactive) | > 100 µM (inactive) | – | > 100 µM (inactive) | 97.3 µM (inactive) | > 100 µM (inactive) | > 100 µM (inactive) | > 100 µM (inactive) | > 100 µM (inactive) | > 100 µM (inactive) | – | > 100 µM (inactive) | > 100 µM (inactive) | > 100 µM (inactive)
7 | COC(=O)[C@@H]1C=C[C@@H](C#N)n2c(=O)n(-c3ccccc3)c(=O)n21 | 34 µM (inactive) | 98.9 µM (inactive) | 24.5 µM (inactive) | – | 45.4 µM (inactive) | 23.7 µM (inactive) | 32.6 µM (inactive) | 28.8 µM (inactive) | – | 26.4 µM (inactive) | 31.8 µM (inactive) | 20.8 µM (inactive) | 46.3 µM (inactive) | 47.5 µM (inactive) | 26.2 µM (inactive) | 24.2 µM (inactive) | 33.8 µM (inactive) | 38.5 µM (inactive) | –
8 | CC(=O)OCC1OC(O/C=C(\CN=[N+]=[N-])C(C)=O)C(OC(C)=O)C(OC(C)=O)C1OC(C)=O (stereo not given) | 13.4 µM (inactive) | 3.01 µM (inactive) | 3.51 µM (inactive) | 2.03 µM (inactive) | 6.15 µM (inactive) | 52.6 µM (inactive) | 15.6 µM (inactive) | 18.7 µM (inactive) | 21.6 µM (inactive) | 21 µM (inactive) | 1.74 µM (inactive) | – | 13.2 µM (inactive) | 45 µM (inactive) | 7.96 µM (inactive) | 3.67 µM (inactive) | 12.2 µM (inactive) | 3.4 µM (inactive) | –
9 | CN(C)c1nncc2[nH]cnc12 | > 100 µM (inactive) | > 100 µM (inactive) | > 100 µM (inactive) | > 100 µM (inactive) | – | > 100 µM (inactive) | > 100 µM (inactive) | 74.8 µM (inactive) | > 100 µM (inactive) | > 100 µM (inactive) | > 100 µM (inactive) | > 100 µM (inactive) | > 100 µM (inactive) | – | > 100 µM (inactive) | > 100 µM (inactive) | > 100 µM (inactive) | > 100 µM (inactive) | > 100 µM (inactive)
10 | CCOc1c(OC)cc(C2c3cc4c(c(OCC)c3CC3COC(=O)C32)OCO4)cc1OC (stereo not given) | 2.7 µM (inactive) | 5.16 µM (inactive) | 2.16 µM (inactive) | – | 37.1 µM (inactive) | 1.99 µM (inactive) | 2.41 µM (inactive) | 0.962 µM (active) | 3.21 µM (inactive) | 2.03 µM (inactive) | 3.75 µM (inactive) | 1.75 µM (inactive) | 1.63 µM (inactive) | 4.03 µM (inactive) | 2.21 µM (inactive) | 23 µM (inactive) | 1.63 µM (inactive) | 1.79 µM (inactive) | 4.6 µM (inactive)
11 | OCC1OC(Oc2cc(O)cc(/C=C\c3ccc(O)cc3)c2)C(O)C(O)C1O (stereo not given) | > 100 µM (inactive) | > 100 µM (inactive) | > 100 µM (inactive) | > 100 µM (inactive) | > 100 µM (inactive) | > 100 µM (inactive) | > 100 µM (inactive) | > 100 µM (inactive) | > 100 µM (inactive) | > 100 µM (inactive) | > 100 µM (inactive) | > 100 µM (inactive) | > 100 µM (inactive) | > 100 µM (inactive) | > 100 µM (inactive) | – | > 100 µM (inactive) | > 100 µM (inactive) | > 100 µM (inactive)
12 | CC(=O)c1nc2ccccc2n1C(C)C(=O)c1ccccc1 (stereo not given) | 52 µM (inactive) | 61.5 µM (inactive) | 50.4 µM (inactive) | 29.6 µM (inactive) | 69.3 µM (inactive) | 81.1 µM (inactive) | 30.2 µM (inactive) | 58.3 µM (inactive) | 33 µM (inactive) | 46 µM (inactive) | 51.6 µM (inactive) | > 100 µM (inactive) | – | 69 µM (inactive) | 56.6 µM (inactive) | – | 57.3 µM (inactive) | – | > 100 µM (inactive)
13 | N=C(N)NS(=O)(=O)c1ccc(Nc2c3ccccc3nc3c(C(=O)NC(CO)(CO)CO)cccc23)cc1 | 13.4 µM (inactive) | 34.5 µM (inactive) | – | 18.9 µM (inactive) | 14.4 µM (inactive) | 11.2 µM (inactive) | 37.6 µM (inactive) | 14.9 µM (inactive) | 2.88 µM (inactive) | > 100 µM (inactive) | 20.1 µM (inactive) | – | 17.5 µM (inactive) | 22 µM (inactive) | 26.5 µM (inactive) | 4.7 µM (inactive) | 12.2 µM (inactive) | 11.1 µM (inactive) | –
14 | CC1=C(C#N)C2C(=C(N)Oc3ccccc32)C(N)=N1 (stereo not given) | 32 µM (inactive) | 19.1 µM (inactive) | 24.4 µM (inactive) | 29.1 µM (inactive) | – | 26.1 µM (inactive) | 25.4 µM (inactive) | 26.4 µM (inactive) | – | 19.3 µM (inactive) | 24 µM (inactive) | 30.1 µM (inactive) | 23.7 µM (inactive) | 8.38 µM (inactive) | 23.7 µM (inactive) | 20.1 µM (inactive) | 34 µM (inactive) | 27.7 µM (inactive) | 22.7 µM (inactive)
15 | COc1ccc(-n2c(CCC(=O)O)nc3c2C(=O)c2ccccc2C3=O)cc1 | > 100 µM (inactive) | > 100 µM (inactive) | 80.2 µM (inactive) | > 100 µM (inactive) | – | > 100 µM (inactive) | – | > 100 µM (inactive) | > 100 µM (inactive) | > 100 µM (inactive) | > 100 µM (inactive) | > 100 µM (inactive) | > 100 µM (inactive) | > 100 µM (inactive) | > 100 µM (inactive) | 33 µM (inactive) | > 100 µM (inactive) | > 100 µM (inactive) | > 100 µM (inactive)
16 | O=C(Nc1ncc([N+](=O)[O-])s1)c1ccccc1O [TIZOXANIDE] | 19.1 µM (inactive) | 29.6 µM (inactive) | 11.1 µM (inactive) | – | 2.74 µM (inactive) | 6.58 µM (inactive) | 23.6 µM (inactive) | 15.3 µM (inactive) | 18 µM (inactive) | 13.6 µM (inactive) | 7 µM (inactive) | 45 µM (inactive) | 15.2 µM (inactive) | 12.2 µM (inactive) | 17.5 µM (inactive) | 28.3 µM (inactive) | 14.9 µM (inactive) | 18.7 µM (inactive) | 3.39 µM (inactive)
